# Laboratory results from US11000528B2, “Compound useful for the treatment of degenerative and inflammatory diseases” (Galapagos NV, priority 2009, dated 2021).
# Tests used:
# [1] = Microsomal stability, human liver microsomes; type: in vitro ADME; settings: 3 μM compound
# Description: (§1) A 10 mM stock solution of compound in DMSO was diluted 1000 fold in a 182 mM phosphate buffer pH7.4 in a 96 deep well plate (Greiner, Cat no. 780285) and pre-incubated at 37° C.
# (§2) 40 μL of deionised water was added to a well of a polypropylene Matrix 2D barcode labelled storage tube (Thermo Scientific) and pre-incubated at 37° C.
# (§3) A Glucose-6-phophate-dehydrogenase (G6PDH) working stock solution was prepared in 182 mM phosphate buffer pH7.4 and placed on ice before use. A co-factor containing MgCl2, glucose-6-phosphate and NADP+ was prepared in deionised water and placed on ice before use.
# (§4) A final working solution containing liver microsomes (Xenotech) of a species of interest (human, mouse, rat, dog), previously described G6PDH and co-factors was prepared and this mix was incubated for no longer than 20 minutes at room temperature.
# (§5) 30 μL of the pre-heated compound dilution was added to 40 μL of pre-heated water in the Matrix tubes and 30 μL of the microsomal mix was added. Final reaction concentrations were 3 μM compound, 1 mg microsomes, 0.4 U/mL GDPDH, 3.3 mM MgCl2, 3.3 mM glucose-6-phosphate and 1.3 mM NADP+.
# (§6) To measure percentage remaining of compound at time zero MeOH or ACN was added (1:1) to the well before adding the microsomal mix. The plates were sealed with Matrix Sepra Seals™ (Matrix, Cat. No. 4464) and shaken for a few seconds ensure complete mixing of all components.
# (§7) The samples which were not stopped are incubated at 37° C., 300 rpm and after 1 hr of incubation the reaction was stopped with MeOH or ACN (1:1).
# (§8) After stopping the reaction the samples were mixed and placed on ice for 30 min to precipitate the proteins. The plates were then centrifuged 30 min at 1200 rcf at 4° C. and the supernatant was transferred to a 96 v-bottom PP plate (Greiner, 651201) for analysis on LCMS.
# (§9) These plates were sealed with sealing mats (MA96RD-04S) of www.kinesis.co.uk and samples were measured at room temperature on LCMS (ZQ 1525 from Waters) under optimized conditions using Quanoptimize to determine the appropriate mass of the parent molecule.
# (§10) The samples were analyzed on LCMS with a flow rate of 1 mL/min. Solvent A was 15 mM ammonia and solvent B was methanol or acetonitrile, depending on the stop solution used. The samples were run under positive ion spray on an XBridge C18 […] (2.1×30 mm) column, from Waters.
# (§11) Peak area from the parent compound at time 0 was considered to be 100% remaining. The percentage remaining after 1 hr incubation was calculated from time 0 and was calculated as the percentage remaining. The solubility of the compound in the final test concentration in buffer is inspected by microscope and results are reported.
# (§12) The data on microsomal stability are expressed as a percentage of the total amount of compound remaining after 60 min.
# [2] = tested on: Circulating TNF alpha levels; test: Septic shock model (LPS-induced TNF alpha release); type: in vivo, mouse; settings: BALB/cJ mice, 30 mg/kg po, LPS 15 μg/kg ip
# Description: Injection of lipopolysaccharide (LPS) induces a rapid release of soluble tumour necrosis factor (TNF-alpha) into the periphery. This model was used to analyse prospective blockers of TNF release in vivo. Six BALB/cJ female mice (20 g) per group were treated at the intended dosing once, po. Thirty minutes later, LPS (15 μg/kg; E. coli serotype 0111:B4) was injected ip. Ninety minutes later, mice were euthanized and blood was collected. Circulating TNF alpha levels were determined using commercially available ELISA kits. Dexamethasone ([…]) was used as a reference anti-inflammatory compound. Selected compounds were tested at one or multiple doses, e.g. 3 and/or 10 and/or 30 mg/kg, po.
# [3] = Microsomal stability, rat liver microsomes; type: in vitro ADME; settings: 3 μM compound
# Description: as §1, §2, §3, §4, §5, §6, §7, §8, §9, §10, §11, §12
# [4] = Pharmacokinetic study in rodents (Sprague-Dawley rats); type: in vivo; settings: male, plasma; Sprague-Dawley rat, IV 1 mg/kg
# Description: Sprague-Dawley rats (male, 5-6 weeks old) were obtained from Janvier (France). Rats were acclimatized for at least 7 days before treatment and were kept on a 12 hr light/dark cycle (0700-1900). Temperature was maintained at approximately 22° C., and food and water were provided ad libitum. […] After the surgery, rats were housed individually. Rats were deprived of food for at least 16 hours before oral dosing and 6 hours after. Water was provided ad libitum.
# Test compounds were orally dosed as a single esophageal gavage at 5 mg/kg under a dosing volume of 5 ml/kg and intravenously dosed as a bolus via the caudal vein at 1 mg/kg under a dosing volume of 5 mL/kg. Each group consisted of 3 rats. […] For compound 11, blood samples were collected at the retro-orbital sinus with lithium heparin as anti-coagulant at the following time points 0.25, 1, 3 and 6 hrs (oral route). Whole blood samples were centrifuged at 5000 rpm for 10 min and the resulting plasma samples were stored at −20° C. pending analysis.
# Plasma concentrations of each test compound were determined by an LC-MS/MS method in which the mass spectrometer was operated in positive electrospray mode.
# Pharmacokinetic parameters were calculated using Winnonlin® (Pharsight®, United States).
# [5] = tested on: rat CIA model; test: Rat collagen induced arthritis (CIA) model; type: in vivo; set-up: key to Clinical Assessment End point score / Clinical Assessment AUC Score / Paw swelling / Larsen' Score: a “*” indicates that there was a statistically significant improvement in the score, p 0.05 vs. untreated control; settings: for Clinical Assessment AUC Score / Clinical Assessment End point score: normalized score
# Description: Dark Agouti rats (male, 7-8 weeks old) were obtained from Harlan Laboratories (Maison-Alfort, France). Rats were kept on a 12 hr light/dark cycle (0700-1900). Temperature was maintained at 22° C., and food and water were provided ad libitum.
# One day before the experiment, CII solution (2 mg/mL) was prepared with 0.05 M acetic acid and stored at 4° C. Just before the immunization, equal volumes of adjuvant (IFA) and CII were mixed by a homogenizer in a pre-cooled glass bottle in an ice water bath. Extra adjuvant and prolonged homogenization may be required if an emulsion is not formed. 0.2 mL of the emulsion was injected intradermally at the base of the tail of each rat on day 1, a second booster intradermal injection (CII solution at 2 mg/mL in CFA 0.1 mL saline) was performed on day 9. This immunization method was modified from published methods (Sims et al, 2004; Jou et al., 2005).
# The therapeutic effects of the compounds were tested in the rat CIA model. Rats were randomly divided into equal groups and each group contained 10 rats. All rats were immunized on day 1 and boosted on day 9. Therapeutic dosing lasted from day 16 to day 30. The negative control group was treated with vehicle (MC 0.5%) and the positive control group with Enbrcl (10 mg/kg, 3× week., s.c.). A compound of interest was typically tested at 3 doses, e.g. 3, 10, 30 mg/kg, p.o.
# Arthritis is scored according to the method of Khachigian 2006, Lin et al 2007 and Nishida et al. 2004). The swelling of each of the four paws is ranked with the arthritic score as follows: 0-no symptoms; 1-mild, but definite redness and swelling of one type of joint such as the ankle or wrist, or apparent redness and swelling limited to individual digits, regardless of the number of affected digits; 2-moderate redness and swelling of two or more types of joints; 3-severe redness and swelling of the entire paw including digits; 4-maximally inflamed limb with involvement of multiple joints (maximum cumulative clinical arthritis score 16 per animal) (Nishida et al., 2004).
# To permit the meta-analysis of multiple studies the clinical score values were normalised as follows:
# AUC of clinical score (AUC score): The area under the curve (AUC) from day 1 to day 14 was calculated for each individual rat. The AUC of each animal was divided by the average AUC obtained for the vehicle in the study from which the data on that animal was obtained and multiplied by 100 (i.e. the AUC was expressed as a percentage of the average vehicle AUC per study).
# Clinical score increase from day 1 to day 14 (End point score): The clinical score difference for each animal was divided by the average clinical score difference obtained for the vehicle in the study from which the data on that animal was obtained and multiplied by 100 (i.e. the difference was expressed as a percentage of the average clinical score difference for the vehicle per study).
# X-ray photos were taken of the hind paws of each individual animal. A random blind identity number was assigned to each of the photos, and the severity of bone erosion was ranked by two independent scorers with the radiological Larsen's score system as follows: 0—normal with intact bony outlines and normal joint space; 1—slight abnormality with any one or two of the exterior metatarsal bones showing slight bone erosion; 2—definite early abnormality with any three to five of the exterior metatarsal bones showing bone erosion; 3—medium destructive abnormality with all the exterior metatarsal bones as well as any one or two of the interior metatarsal bones showing definite bone erosions; 4—severe destructive abnormality with all the metatarsal bones showing definite bone erosion and at least one of the inner metatarsal joints completely eroded leaving some bony joint outlines partly preserved; 5—mutilating abnormality without bony outlines. This scoring system is a modification from Salvemini et al., 2001; Bush et al., 2002; Sims et al., 2004; Jou et al., 2005.
# [6] = tested on: MMP13 levels in human chondrosarcoma cell line SW1353; test: cells; settings: SW1353, 48 h
# Description: The cells were seeded in 96 well plates at 15,000 cells/well in a volume of 120 μL DMEM (Invitrogen) containing 10% (v/v) FBS and 1% penicillin/streptomycin (InVitrogen) incubated at 37° C. 5% CO2. Cells were preincubated with 15 μL of compound in M199 medium with 2% DMSO 1 hr before triggering with 15 μL OSM and IL-1β to reach 25 ng/mL OSM and 1 ng/mL IL-1β, and MMP13 levels were measured in conditioned medium 48 hours after triggering. MMP13 activity was measured using an antibody capture activity assay. For this purpose, 384 well plates (NUNC, 460518, MaxiSorb black) were coated with 35 μL of a 1.5 μg/mL anti-human MMP13 antibody (R&D Systems, MAB511) solution for 24 hrs at 4° C. After washing the wells 2 times with PBS+0.05% Tween, the remaining binding sites were blocked with 100 μL 5% non-fat dry milk (Santa Cruz, sc-2325, Blotto) in PBS for 24 hr at 4° C. […] After incubation for 24 hrs at 37° C. fluorescence of the converted substrate was measured in a Perkin Elmer Wallac EnVision 2102 Multilabel Reader (wavelength excitation: 320 nm, wavelength emission: 405 nm). Percentage inhibition=((fluorescence determined in the presence of vehicle−fluorescence determined for sample with test compound present) divided by (fluorescence determined in the presence of vehicle−fluorescence determined for sample without trigger))*100.
# [7] = tested on: JAK-STAT signalling in HeLa cells; test: JAK-STAT signalling assay (OSM-triggered pSTAT1(2)-luciferase reporter in HeLa cells); type: cell-based; settings: Homo sapiens, human OSM 33 ng/mL, STAT1 luciferase reporter
# Description: HeLa cells were maintained in Dulbecco's Modified Eagle's Medium (DMEM) containing 10% heat inactivated fetal calf serum, 100 U/mL penicillin and 100 μg/mL streptomycin. HeLa cells were used at 70% confluence for transfection. 20,000 cells in 87 μL cell culture medium were transiently transfected with 40 ng pSTAT1(2)-luciferase reporter (Panomics), 8 ng of LacZ reporter as internal control reporter and 52 ng of pBSK using 0.32 μL Jet-PEI (Polyplus) as transfection reagent per well in 96-well plate format. After overnight incubation at 37° C., 10% CO2, transfection medium was removed.
# 40 μL of cell lysate was used to read β-galactosidase activity by adding 180 μL β-Gal solution (30 μL ONPG 4 mg/mL+150 μL β-Galactosidase buffer (0.06 M Na2HPO4, 0.04 M NaH2PO4, 1 mM MgCl2)) for 20 min.
# The positive and negative controls were used to calculate z′ and ‘percent inhibition’ (PIN) values.
# PIN values were plotted for compounds tested in dose-response and EC50 values were derived.
smiles,measurement,setting,value
"O=C(Nc1nc2cccc(-c3ccc(CN4CCS(=O)(=O)CC4)cc3)n2n1)C1CC1 [Compound 1, Cyclopropanecarboxylic acid {5-[4-(1,1-dioxo-1-thiomorpholin-4-ylmethyl)-phenyl]-[1,2,4]triazolo[1,5-a]pyridin-2-yl}-amide]","microsomal stability, percentage of compound remaining after 60 min, Human",[1],87.2%
same,activity in septic shock model (blocking of TNF release),[2],active
same,"microsomal stability, percentage of compound remaining after 60 min, Rat",[3],65.6%
same,C0,[4],1410 ng/mL
same,Clinical Assessment AUC Score,[5]; 0.1 mg/kg/day p.o.,*
same,Clinical Assessment End point score,[5]; 0.1 mg/kg/day p.o.,*
same,Paw swelling,[5]; 0.3 mg/kg/day p.o.,*
same,Clinical Assessment AUC Score,[5]; 0.3 mg/kg/day p.o.,*
same,Clinical Assessment End point score,[5]; 0.3 mg/kg/day p.o.,*
same,Paw swelling,[5]; 1 mg/kg/day p.o.,*
same,Clinical Assessment AUC Score,[5]; 1 mg/kg/day p.o.,*
same,Clinical Assessment End point score,[5]; 1 mg/kg/day p.o.,*
same,Larsen' Score,[5]; 3 mg/kg/day p.o.,*
same,Paw swelling,[5]; 3 mg/kg/day p.o.,*
same,Clinical Assessment AUC Score,[5]; 3 mg/kg/day p.o.,*
same,Clinical Assessment End point score,[5]; 3 mg/kg/day p.o.,*
same,normalized clinical score values (calculated as AUC or as the difference from day 1 to day 14),[5]; dose of 0.1 mg/kg,statistically significant improvements
same,paw swelling readout,[5]; dose of 0.3 mg/kg,statistically significant increase
same,Larsen score,[5]; dose of 3 mg/kg,statistically significant increase
same,improvement in efficacy over Compound 2 when the oral doses are compared,[5]; oral doses compared,100 fold
same,EC50,[6],2240 nM
"O=C(Nc1nc2cccc(-c3ccc(CN4CCOCC4)cc3)n2n1)C1CC1 [Compound 2, N-(5-(4-(morpholinomethyl)phenyl)-[1,2,4]triazolo[1,5-a]pyridin-2-yl)cyclopropanecarboxamide]","microsomal stability, percentage of compound remaining after 60 min, Human",[1],73%
same,"microsomal stability, percentage of compound remaining after 60 min, Rat",[3],38%
same,C0,[4],863 ng/mL
same,normalized clinical score values (on day 14),[5]; dose of 10 mg/kg,statistically significant improvements
same,Larsen score,[5]; dose of 30 mg/kg,statistically significant increase
same,paw swelling readout,[5]; dose of 30 mg/kg,statistically significant increase
"O=C(Nc1nc2cccc(-c3ccc(C(=O)N4CCS(=O)(=O)CC4)cc3)n2n1)C1CC1 [Compound 10, Cyclopropanecarboxylic acid {5-[4-(1,1-dioxo-1-thiomorpholine-4-carbonyl)-phenyl]-[1,2,4]triazolo[1,5-a]yridin-2-yl}-amide]","microsomal stability, percentage of compound remaining after 60 min, Human",[1],102%
same,"microsomal stability, percentage of compound remaining after 60 min, Rat",[3],89%
"O=C(Nc1nc2cccc(-c3ccc(CN4CCC(F)(F)CC4)cc3)n2n1)C1CC1 [Compound 11, Cyclopropanecarboxylic acid {5-[4-(4,4-difluoro-piperidin-1-ylmethyl)-phenyl]-[1,2,4]triazolo[1,5-a]pyridin-2-yl}-amide]","microsomal stability, percentage of compound remaining after 60 min, Human",[1],51%
same,"microsomal stability, percentage of compound remaining after 60 min, Rat",[3],26%
same,EC50,[7],740 nM
